Measured values from article PMC5834492, “Antimycobacterial drug discovery using Mycobacteria-infected amoebae identifies anti-infectives and new molecular targets” (Scientific Reports, 2018).
“Also recorded” adds a separate entry of the source.

Tests used:
[1] = tested on: M. marinum in BV2 microglial cells; format: cell-based, Mycobacterium marinum
[2] = not told; cited from earlier work
[3] = tested on: M. marinum luxCDABE; format: cell-based, Mycobacterium marinum
[4] = tested on: M. marinum GFP; format: cell-based, Mycobacterium marinum; settings: for M. marinum GFP normalised growth, control=1.00, mean: 10 µM, antibiotic assay; for antibiotic activity in M. marinum growth assay: broth
[5] = tested on: M. marinum in A. castellanii; format: cell-based, Mycobacterium marinum
[6] = tested on: M. bovis BCG pMV261 (empty plasmid); format: cell-based, Mycobacterium bovis BCG
[7] = tested on: M. bovis BCG pMV261-murC; format: cell-based, Mycobacterium bovis BCG
[8] = tested on: D. discoideum GFP-ABD; settings: for D. discoideum GFP-ABD normalised growth, control=1.00, mean: 10 µM
[9] = tested on: M. bovis BCG pMV261-fbpA; format: cell-based, Mycobacterium bovis BCG
[10] = tested on: BV2 cells
[11] = tested on: Mtb H37Rv in THP-1; set-up: method as in Sorrentino et al, 2015; settings: ref Sorrentino et al, 2015, cited from earlier work; for Intracelullar MIC90 in THP-1: THP1 / Mtb H37Rv infection assay; for Extracellular MIC90/ Inracellular MIC90: ratio
[12] = tested on: Mtb H37Rv; set-up: method as in Sorrentino et al, 2015; settings: ref Sorrentino et al, 2015; cited from earlier work

Compound	Antibiotic assays: M. marinum luxCDABE [3]	Intracellular infection assays: A. castellanii / M. marinum [5]	Intracellular infection assays: BV2 / M. marinum [1]	Growth inhibition / Cytotoxicity assays: D. discoideum GFP-ABD [8]	Growth inhibition / Cytotoxicity assays: BV2 cells [10]	Intracelullar MIC90 in THP-1 [11] [µM]	Extracellular MIC90/ Inracellular MIC90 [11]	Extracellular MIC90 [12] [µM]	also measured
NCC[C@H](O)C(=O)N[C@@H]1C[C@H](N)[C@@H](O[C@H]2O[C@H](CN)[C@@H](O)[C@H](O)[C@H]2O)[C@H](O)[C@H]1O[C@H]1O[C@H](CO)[C@@H](O)[C@H](N)[C@H]1O [amikacin, reference compound]									effect of amikacin on intracellular mycobacteria growth [1]: has an effect on mycobacteria growth inside BV2 cells; also recorded: exerts a significant effect on intracellular bacteria; cellular permeability [2]: low cellular permeability
CC(C)OC(=O)COc1ccc(-c2cnc(N(C)CCc3ccncc3)nc2)cc1 [GSK831784A]									M. marinum luxCDABE normalised growth, control = 1.00, mean ([3]; 10 µM): 0,00; M. marinum luxCDABE normalised growth, control=1.00, mean ([3]; 10 µM): 0.00; M. marinum GFP normalised growth, control=1.00, mean [4]: 0.10; antibiotic activity in M. marinum growth assay [4]: strong antibiotic activity; A. castellanii / M. marinum normalised growth, control=1.00, mean ([5]; 10 µM): 0.20; Hits A. castellanii/M. marinum assay True/False ([5]; 10 µM): TRUE; IC50 [1]: 15 µM; BV2 / M. marinum normalised growth, control=1.00, mean ([1]; 10 µM): 0.97; hit in BV2/M. marinum assay True/False ([1]; 10 µM): FALSE; pXC50(1) [6]: 4.96; pXC50(2) [6]: 4.97; pIC50 Shift (1) [7]: 0.32; pIC50 Shift (2) [7]: 0.42; pXC50(1) [7]: 4.64; pXC50(2) [7]: 4.55; D. discoideum GFP-ABD normalised growth, control=1.00, mean [8]: 0.98
CC(C)(C)c1ccc(-c2nnc(SCC(=O)OC3CCCCC3)o2)cc1 [GW859039X]	0.075	0.90	1.04	0.68	False	5.55	0.31	1.7	antibiotic activity in M. marinum growth assay [4]: strong antibiotic activity; pXC50(1) [6]: 5.03; pXC50(2) [6]: 5.04; pIC50 Shift (1) [9]: 0.43; pIC50 Shift (2) [9]: 0.42; pXC50(1) [9]: 4.6; pXC50(2) [9]: 4.62
COc1cc(Cc2cnc(N)nc2N)c2cnccc2c1N(C)C [GW360240X]	0.74	1.10	1.06	1.13	False	50	0.06	3	
Cc1ccc2nc(C)c(-c3ccn(Cc4ccccc4)n3)n2c1 [GSK847920A]						1.85	2.7	5	M. marinum luxCDABE normalised growth, control=1.00, mean ([3]; 10 µM): 0.11; M. marinum GFP normalised growth, control=1.00, mean [4]: 0.36; antibiotic activity in M. marinum growth assay [4]: strong antibiotic activity; A. castellanii / M. marinum normalised growth, control=1.00, mean ([5]; 10 µM): 1.17; IC50 [1]: 3.29 µM; BV2 / M. marinum normalised growth, control=1.00, mean ([1]; 10 µM): 0.95; pXC50(1) [6]: 5.94; pXC50(2) [6]: 5.99; pIC50 Shift (1) [7]: 0.49; pIC50 Shift (2) [7]: 0.54; pXC50(1) [7]: 5.45; pXC50(2) [7]: 5.45; D. discoideum GFP-ABD normalised growth, control=1.00, mean [8]: 0.34
Cc1ccc(SCCNC(=O)c2c(-c3ccccc3)noc2C)cc1 [GSK1863309A]	0.00	1.09	1.12	0.97	False	16.65	0.47	7.8	
CCc1nc2ccccc2n1CC(O)COc1cc(C)ccc1Cl (centres unmarked) [GSK889423A]	0.00	1.18	1.41	0.94	False	5.55	1.58	8.8	
Cc1cc(OCC(=O)NCc2ccccc2)c2cc(Br)ccc2n1 [GSK124576A]	0.00	1.13	1.05	0.91	False	5.55	0.41	2.3	
CCCCc1ccc(C(=O)Nc2nccc3ccccc23)nc1 [SB-746177]	0.00	1.01	1.27	0.92	False	1.85	4.97	9.2	
O=C(c1[nH]nc2c1CCCC2)N1CCN(Cc2ccc3c(c2)OCO3)CC1 [SB-712970]	0.00	1.13	1.28	0.79	False	5.55	0.81	4.5	
COc1ccc2nc(C)cc(OCC(=O)NCc3ccccc3)c2c1 [GSK463114A]	0.00	1.10	1.37	0.95	False	5.55	0.2	1.1	
Fc1ccc2nc(Nc3nc(-c4ccccn4)cs3)sc2c1 [GSK735816A]	0.00	1.17	1.37	0.37	False	1.85	1.24	2.3	
